Assay results published in ChEMBL document CHEMBL2321712 (ACS Med Chem Lett, 2013).
pIC50: −log10 of the molar value. The source made the active and inactive calls. The rule behind the calls is not given here.

What was measured:
[1] = biological target: Cyclin-dependent kinase 4 (Homo sapiens, UniProt P11802); experiment: Inhibition of CDK4 (unknown origin); type: single protein
[2] = biological target: Fibroblast growth factor receptor 1 (Homo sapiens, UniProt P11362); experiment: Inhibition of FGFR1 (unknown origin); type: single protein
Fibroblast growth factor receptor 1, sequence (P11362 whole entry): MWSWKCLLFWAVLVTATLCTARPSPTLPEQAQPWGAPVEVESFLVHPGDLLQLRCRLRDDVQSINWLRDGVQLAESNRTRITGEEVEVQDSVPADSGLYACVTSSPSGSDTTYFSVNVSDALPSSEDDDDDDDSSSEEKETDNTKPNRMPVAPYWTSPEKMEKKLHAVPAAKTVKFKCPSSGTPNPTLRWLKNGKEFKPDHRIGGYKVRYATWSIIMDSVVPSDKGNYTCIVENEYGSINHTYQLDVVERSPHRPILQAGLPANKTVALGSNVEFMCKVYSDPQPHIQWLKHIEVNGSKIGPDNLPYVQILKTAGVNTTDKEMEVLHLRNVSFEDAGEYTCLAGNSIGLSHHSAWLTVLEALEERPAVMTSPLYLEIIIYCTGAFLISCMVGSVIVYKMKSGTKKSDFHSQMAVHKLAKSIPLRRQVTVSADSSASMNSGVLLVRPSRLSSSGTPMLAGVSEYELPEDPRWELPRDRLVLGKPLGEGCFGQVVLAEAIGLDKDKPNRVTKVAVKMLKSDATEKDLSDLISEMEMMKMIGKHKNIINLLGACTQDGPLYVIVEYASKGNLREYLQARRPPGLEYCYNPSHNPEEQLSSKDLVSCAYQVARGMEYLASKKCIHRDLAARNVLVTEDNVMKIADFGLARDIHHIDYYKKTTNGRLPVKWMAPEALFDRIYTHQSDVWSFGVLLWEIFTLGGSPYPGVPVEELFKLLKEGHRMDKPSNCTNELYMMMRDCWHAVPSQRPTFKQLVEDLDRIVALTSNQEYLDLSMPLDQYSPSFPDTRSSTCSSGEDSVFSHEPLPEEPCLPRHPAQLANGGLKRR

[3] = biological target: Cyclin-dependent kinase 2 (Homo sapiens, UniProt P24941); experiment: Inhibition of CDK2 (unknown origin); type: single protein
[4] = biological target: Vascular endothelial growth factor receptor 2 (Homo sapiens, UniProt P35968); experiment: Inhibition of KDR (unknown origin); type: single protein
Vascular endothelial growth factor receptor 2, sequence (P35968 whole entry): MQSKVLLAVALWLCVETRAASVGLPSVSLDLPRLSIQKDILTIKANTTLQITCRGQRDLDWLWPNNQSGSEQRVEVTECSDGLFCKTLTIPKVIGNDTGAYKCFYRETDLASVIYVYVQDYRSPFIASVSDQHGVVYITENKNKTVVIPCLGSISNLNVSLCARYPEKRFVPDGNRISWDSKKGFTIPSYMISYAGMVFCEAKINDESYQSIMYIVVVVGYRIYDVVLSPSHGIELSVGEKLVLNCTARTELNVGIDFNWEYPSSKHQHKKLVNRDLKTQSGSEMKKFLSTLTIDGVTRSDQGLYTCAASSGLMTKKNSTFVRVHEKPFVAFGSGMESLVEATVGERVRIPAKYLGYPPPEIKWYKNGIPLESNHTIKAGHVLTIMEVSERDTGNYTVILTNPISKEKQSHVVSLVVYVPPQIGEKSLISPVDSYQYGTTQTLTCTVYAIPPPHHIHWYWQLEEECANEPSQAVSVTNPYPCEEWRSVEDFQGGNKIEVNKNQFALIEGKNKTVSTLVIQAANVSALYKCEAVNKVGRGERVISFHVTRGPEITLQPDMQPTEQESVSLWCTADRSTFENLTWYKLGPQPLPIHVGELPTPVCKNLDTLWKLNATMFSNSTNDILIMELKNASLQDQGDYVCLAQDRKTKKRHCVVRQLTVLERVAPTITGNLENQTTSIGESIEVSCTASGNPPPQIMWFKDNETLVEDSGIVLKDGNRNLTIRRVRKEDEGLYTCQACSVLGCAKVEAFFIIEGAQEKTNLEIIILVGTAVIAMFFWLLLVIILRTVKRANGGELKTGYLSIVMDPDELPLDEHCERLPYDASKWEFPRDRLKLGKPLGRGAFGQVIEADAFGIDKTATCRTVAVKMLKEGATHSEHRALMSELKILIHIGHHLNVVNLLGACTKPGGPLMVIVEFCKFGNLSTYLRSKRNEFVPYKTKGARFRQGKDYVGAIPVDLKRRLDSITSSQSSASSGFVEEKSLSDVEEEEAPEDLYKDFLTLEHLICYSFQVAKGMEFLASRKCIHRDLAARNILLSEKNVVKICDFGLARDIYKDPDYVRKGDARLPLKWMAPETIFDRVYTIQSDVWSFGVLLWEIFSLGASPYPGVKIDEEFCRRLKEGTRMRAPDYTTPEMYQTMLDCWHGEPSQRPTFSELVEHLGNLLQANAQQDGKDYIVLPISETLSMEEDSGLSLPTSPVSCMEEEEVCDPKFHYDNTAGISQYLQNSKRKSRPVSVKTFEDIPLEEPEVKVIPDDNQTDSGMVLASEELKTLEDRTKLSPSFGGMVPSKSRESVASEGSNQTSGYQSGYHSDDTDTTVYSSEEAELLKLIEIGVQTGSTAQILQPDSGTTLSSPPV

[5] = Terminal half life in mouse at 5 mg/kg, iv; type: ADME, organism-based; design: dose 5 mg/kg, route intravenous; settings: in vivo, read-out: beta t1/2 (converted)
[6] = Total clearance in mouse at 5 mg/kg, iv; type: ADME, organism-based; design: dose 5 mg/kg, route intravenous; settings: in vivo
HUVEC [7] = experiment: Antiangiogenic activity in HUVEC assessed as inhibition of PDGF-induced cell proliferation; type: functional, cell-based; settings: Homo sapiens
[8] = Antiproliferative activity against human melanoma cells by MTT assay; type: functional, cell-based; settings: Melanoma cell
[9] = Antiproliferative activity against human oral epidermoid cancer cells by MTT assay; type: functional, cell-based; settings: Cancer cell lines
[10] = Antiproliferative activity against human prostate cancer cells by MTT assay; type: functional, cell-based; settings: Cancer cell lines
[11] = Antiproliferative activity against human lung cancer cells by MTT assay; type: functional, cell-based; settings: Cancer cell lines
[12] = Antiproliferative activity against human breast cancer cells by MTT assay; type: functional, cell-based; settings: Cancer cell lines
[13] = Antiproliferative activity against human colon cancer cells by MTT assay; type: functional, cell-based; settings: Cancer cell lines
Aurora kinase A = biological target: T1, Aurora kinase A (Homo sapiens, UniProt O14965); experiment: Inhibition of aurora-A (unknown origin)
T1 sequence (O14965 whole entry): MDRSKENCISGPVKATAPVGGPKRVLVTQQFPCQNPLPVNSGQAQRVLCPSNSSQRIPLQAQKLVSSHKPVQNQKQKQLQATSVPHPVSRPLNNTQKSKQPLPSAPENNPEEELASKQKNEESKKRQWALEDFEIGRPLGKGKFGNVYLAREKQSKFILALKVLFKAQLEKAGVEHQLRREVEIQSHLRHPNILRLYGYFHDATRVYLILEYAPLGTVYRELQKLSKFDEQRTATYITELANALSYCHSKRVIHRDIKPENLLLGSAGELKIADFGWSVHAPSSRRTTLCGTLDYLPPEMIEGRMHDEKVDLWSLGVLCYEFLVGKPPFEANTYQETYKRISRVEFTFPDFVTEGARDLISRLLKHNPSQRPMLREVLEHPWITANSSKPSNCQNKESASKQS

HUVEC [14] = experiment: Antiangiogenic activity in HUVEC assessed as inhibition of VEGF-induced cell proliferation; type: functional, cell-based; settings: Homo sapiens
HUVEC [15] = experiment: Antiangiogenic activity in HUVEC assessed as inhibition of bFGF-induced cell proliferation; type: functional, cell-based; settings: Homo sapiens
A549 [16] = experiment: Antitumor activity against human A549 cells xenografted in mouse assessed as increase in mouse survival at 25 to 50 mg/kg, po qd up to 32 days; type: functional; settings: dose mg/kg 25-50
HCT-116 [17] = experiment: Antitumor activity against human HCT116 cells xenografted in mouse assessed as increase in mouse survival at 25 to 50 mg/kg, po qd up to 32 days; type: functional; settings: dose mg/kg 25-50
LoVo = experiment: Antitumor activity against human LoVo cells xenografted in mouse assessed as increase in mouse survival at 25 to 50 mg/kg, po qd up to 32 days; type: functional; settings: dose mg/kg 25-50
MDA-MB-231 [18] = experiment: Antitumor activity against human MDA-MB-231 cells xenografted in mouse assessed as increase in mouse survival at 25 to 50 mg/kg, po qd up to 32 days; type: functional; settings: dose mg/kg 25-50
Mus musculus [19] = experiment: Toxicity in human A549 cells xenografted mouse assessed as changes in body weight and gross observation at 25 to 50 mg/kg, po qd up to 32 days; type: organism-based; design: dose 25-50 mg/kg, route oral; settings: in vivo, 768 h
Mus musculus [20] = experiment: Toxicity in human HCT116 cells xenografted mouse assessed as changes in body weight and gross observation at 25 to 50 mg/kg, po qd up to 32 days; type: organism-based, HCT-116; design: dose 25-50 mg/kg, route oral; settings: in vivo, 768 h
Mus musculus [21] = experiment: Toxicity in human LoVo cells xenografted mouse assessed as changes in body weight and gross observation at 25 to 50 mg/kg, po qd up to 32 days; type: organism-based; design: dose 25-50 mg/kg, route oral; settings: in vivo, 768 h
Mus musculus [22] = experiment: Toxicity in human MDA-MB-231 cells xenografted mouse assessed as changes in body weight and gross observation at 25 to 50 mg/kg, po qd up to 32 days; type: organism-based; design: dose 25-50 mg/kg, route oral; settings: in vivo, 768 h
A549 [23] = experiment: Antitumor activity against human A549 cells xenografted in mouse assessed as tumor growth inhibition at 1.56 mg/kg, po qd up to 32 days; type: functional, organism-based; design: dose 1.56 mg/kg
HCT-116 [24] = experiment: Antitumor activity against human HCT116 cells xenografted in mouse assessed as tumor growth inhibition at 1.56 mg/kg, po qd up to 32 days; type: functional, organism-based; design: dose 1.56 mg/kg
MDA-MB-231 [25] = experiment: Antitumor activity against human MDA-MB-231 cells xenografted in mouse assessed as tumor regression at 25 mg/kg, po qd up to 32 days; type: functional, organism-based; design: dose 25 mg/kg
MDA-MB-231 [26] = experiment: Antitumor activity against human MDA-MB-231 cells xenografted in mouse assessed as tumor regression at 50 mg/kg, po qd up to 32 days; type: functional, organism-based; design: dose 50 mg/kg
MDA-MB-231 [27] = experiment: Antitumor activity against human MDA-MB-231 cells xenografted in mouse assessed as tumor growth inhibition at 50 mg/kg, po qd up to 32 days; type: functional, organism-based; design: dose 50 mg/kg
[28] = Oral bioavailability in monkey at 10 mg/kg; type: ADME, organism-based, Macaca mulatta; settings: rhesus monkey, in vivo
[29] = Cmax in monkey at 10 mg/kg, po; type: ADME, organism-based, Macaca mulatta; design: dose 10 mg/kg, route oral; settings: rhesus monkey, in vivo
[30] = AUC (0 to 24 hrs) in monkey at 10 mg/kg, po; type: ADME, organism-based, Macaca mulatta; design: time < 24 hr, dose 10 mg/kg, route oral; settings: rhesus monkey, plasma
[31] = Tmax in monkey at 10 mg/kg, po; type: ADME, organism-based, Macaca mulatta; design: dose 10 mg/kg, route oral; settings: rhesus monkey, in vivo
[32] = Oral bioavailability in rat at 50 mg/kg; type: ADME, organism-based; settings: in vivo
[33] = Cmax in rat at 50 mg/kg, po; type: ADME, organism-based; design: dose 50 mg/kg, route oral; settings: in vivo
[34] = AUC (0 to 24 hrs) in rat at 50 mg/kg, po; type: ADME, organism-based; design: time < 24 hr, dose 50 mg/kg, route oral; settings: plasma
[35] = Tmax in rat at 50 mg/kg, po; type: ADME, organism-based; design: dose 50 mg/kg, route oral; settings: in vivo
[36] = Oral bioavailability in mouse at 25 mg/kg; type: ADME, organism-based; settings: in vivo
[37] = AUC (0 to 24 hrs) in mouse at 25 mg/kg, po; type: ADME, organism-based; design: time < 24 hr, dose 25 mg/kg, route oral; settings: plasma
[38] = Cmax in mouse at 25 mg/kg, po; type: ADME, organism-based; design: dose 25 mg/kg, route oral; settings: in vivo
[39] = Tmax in mouse at 25 mg/kg, po; type: ADME, organism-based; design: dose 25 mg/kg, route oral; settings: in vivo
[40] = Volume of distribution at steady state in monkey at 1 mg/kg, iv; type: ADME, organism-based, Macaca mulatta; design: dose 1 mg/kg, route intravenous; settings: rhesus monkey, in vivo, read-out: Vdss
[41] = Terminal half life in monkey at 1 mg/kg, iv; type: ADME, organism-based, Macaca mulatta; design: dose 1 mg/kg, route intravenous; settings: rhesus monkey, in vivo, read-out: beta t1/2 (converted)
[42] = Total clearance in monkey at 1 mg/kg, iv; type: ADME, organism-based, Macaca mulatta; design: dose 1 mg/kg, route intravenous; settings: rhesus monkey, in vivo
[43] = Volume of distribution at steady state in rat at 5 mg/kg, iv; type: ADME, organism-based; design: dose 5 mg/kg, route intravenous; settings: in vivo, read-out: Vdss
[44] = Terminal half life in rat at 5 mg/kg, iv; type: ADME, organism-based; design: dose 5 mg/kg, route intravenous; settings: in vivo, read-out: beta t1/2 (converted)
[45] = Total clearance in rat at 5 mg/kg, iv; type: ADME, organism-based; design: dose 5 mg/kg, route intravenous; settings: in vivo
[46] = Volume of distribution at steady state in mouse at 5 mg/kg, iv; type: ADME, organism-based; design: dose 5 mg/kg, route intravenous; settings: in vivo, read-out: Vdss
22Rv1 (Homo sapiens) = experiment: Antitumor activity against human 22Rv1 cells xenografted in mouse assessed as tumor growth inhibition at 25 to 50 mg/kg, po qd up to 32 days; settings: dose mg/kg 25-50

Cyclin-dependent kinase 4, sequence (P11802 whole entry): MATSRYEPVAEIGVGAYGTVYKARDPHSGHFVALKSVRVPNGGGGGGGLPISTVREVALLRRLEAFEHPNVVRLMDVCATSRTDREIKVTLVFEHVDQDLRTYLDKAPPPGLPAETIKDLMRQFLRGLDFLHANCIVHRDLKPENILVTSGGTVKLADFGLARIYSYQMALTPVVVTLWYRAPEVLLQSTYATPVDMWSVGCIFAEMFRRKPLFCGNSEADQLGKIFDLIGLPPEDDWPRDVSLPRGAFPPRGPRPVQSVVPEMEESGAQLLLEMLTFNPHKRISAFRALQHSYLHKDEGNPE

`Cc1[nH]nc2c1N=C(c1ccccc1Cl)c1cc(N)ccc1N2` showed a pIC50 [1] of 6.52, a pIC50 [2] of 7.30 and a pIC50 [3] of 7.06. For the same compound, the pIC50 [4] was 7.47.

Work on `COc1cc2c(cc1F)C(c1ccccc1Cl)=Nc1c(n[nH]c1C)N2` [RG-1530] yielded a half-life [5] of 4.32 h, a clearance [6] of 8.8 mL/min/kg and a pIC50 (HUVEC [7]) of 6.16. For the same compound, the pIC50 [8] was 6.70, the pIC50 [9] was 6.70 and the pIC50 [10] was 6.70. The pIC50 [11] was 6.70, the pIC50 [12] was 6.70 and the pIC50 [13] was 6.70. The pIC50 (Aurora kinase A) was 7.24, the pIC50 [2] was 7.55 and the pIC50 (HUVEC [14]) was 7.31. The pIC50 (HUVEC [15]) was 6.93, the Survival (A549 [16]) was “>=25%” and the Survival (HCT-116 [17]) was “>=25%”. The Survival (LoVo) was “>=25%”, the Survival (MDA-MB-231 [18]) was “>=25%” and the Activity (Mus musculus [19]) was “Non-toxic”. For the same compound, the Activity (Mus musculus [20]) was “Non-toxic”, the Activity (Mus musculus [21]) was “Non-toxic” and the Activity (Mus musculus [22]) was “Non-toxic”. For the same compound, the TGI (A549 [23]) was “inactive”, the TGI (HCT-116 [24]) was “inactive” and the Activity (MDA-MB-231 [25]) was “Active”. For the same compound, the Activity (MDA-MB-231 [26]) was “Active”, the TGI (MDA-MB-231 [27]) was “Active” and the bioavailability [28] was 22.1%. For the same compound, the Cmax [29] was 406 ng/mL, the AUC(0-t) at 24 h [30] was 4820 ng·h/mL and the Tmax [31] was 4 h. For the same compound, the bioavailability [32] was 88.7%, the Cmax [33] was 5360 ng/mL and the AUC(0-t) at 24 h [34] was 86300 ng·h/mL. The Tmax [35] was 4 h, the bioavailability [36] was 96.9% and the AUC(0-t) at 24 h [37] was 46700 ng·h/mL. For the same compound, the Cmax [38] was 5070 ng/mL, the Tmax [39] was 2 h and the Vd [40] was 1.59 L/kg. For the same compound, the half-life [41] was 3.83 h, the clearance [42] was 7.82 mL/min/kg and the Vd [43] was 3.22 L/kg. It also gave a half-life [44] of 4.7 h, a clearance [45] of 8.78 mL/min/kg and a Vd [46] of 3.12 L/kg. The TGI (22Rv1 (Homo sapiens)) was 98%.
